What was measured:
[1] = target: T1, human glucocorticoid receptor (Homo sapiens, UniProt P04150); assay: Glucocorticoid Receptor Binding Assay (I), fluorescence polarization competitor kit (Fluormone GS Red); conditions: purified human recombinant full-length GR 2 nM, 1 nM Fluormone GS Red, FP; read-out: GR (Ki, nM) (GR Binding Assay (I))
T1 construct: purified human recombinant full-length glucocorticoid receptor (2 nM); purchased Invitrogen Part #2893
T1 sequence (P04150 1-777): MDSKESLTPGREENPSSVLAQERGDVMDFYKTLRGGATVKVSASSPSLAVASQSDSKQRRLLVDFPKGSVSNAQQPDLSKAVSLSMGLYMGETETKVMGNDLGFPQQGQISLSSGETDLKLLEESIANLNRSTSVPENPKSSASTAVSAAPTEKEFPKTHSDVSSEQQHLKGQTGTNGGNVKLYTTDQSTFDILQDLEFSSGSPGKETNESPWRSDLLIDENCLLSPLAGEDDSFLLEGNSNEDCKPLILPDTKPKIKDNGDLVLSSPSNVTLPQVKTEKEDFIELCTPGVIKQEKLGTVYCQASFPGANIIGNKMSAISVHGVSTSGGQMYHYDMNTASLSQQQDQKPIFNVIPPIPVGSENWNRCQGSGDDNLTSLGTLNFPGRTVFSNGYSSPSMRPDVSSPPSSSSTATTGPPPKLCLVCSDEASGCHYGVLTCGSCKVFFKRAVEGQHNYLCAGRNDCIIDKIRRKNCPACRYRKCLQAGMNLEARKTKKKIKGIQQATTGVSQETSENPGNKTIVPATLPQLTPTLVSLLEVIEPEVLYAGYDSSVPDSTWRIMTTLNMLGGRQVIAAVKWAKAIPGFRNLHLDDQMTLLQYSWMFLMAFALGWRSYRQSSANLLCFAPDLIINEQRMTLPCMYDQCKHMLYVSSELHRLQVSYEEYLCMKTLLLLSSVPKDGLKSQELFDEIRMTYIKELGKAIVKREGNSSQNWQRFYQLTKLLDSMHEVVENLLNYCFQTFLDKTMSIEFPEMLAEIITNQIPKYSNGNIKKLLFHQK
Description: Briefly, purified human recombinant full-length glucocorticoid receptor (2 nM) was mixed with fluorescently labeled glucocorticoid (1 nM Fluormone GS Red) in the presence or absence of test compound. After two hour incubation at room temperature in the dark, the fluorescence polarization (FP) of the samples was measured. […] Test compounds were analyzed in the concentration range from 8.5E-05 μM to 5 μM.

[2] = tested on: AP-1 induced transcriptional activity; assay: Cellular Transrepressional Assay (AP-1 luciferase reporter in A549 cells, PMA-activated); assay type: cell-based; conditions: Homo sapiens, A549, 7 h, A549 cells with 7x AP-1 luciferase reporter, 10 ng/ml PMA, read-out: AP-1 (EC50, nM) (Cellular Transrepression Assay)
Description: To measure the ability of test molecules to inhibit AP-1 induced transcriptional activity an A549 cell was utilized which was stably transfected with a plasmid containing 7× AP-1 DNA binding sites (pAP-1-Luc plasmid, Stratagene Co. La Jolla, Calif.) followed by the gene for luciferase. Cells were activated with 10 ng/ml of […] (PMA) plus or minus test molecules for 7 hours. After 7 hours a luciferase reagent was added to measure luciferase enzymatic activity in the cell. After a 10 minute incubation of luciferase reagent with cells, luminescence was measured in a TopCount luminescence counter. Repression of AP-1 activity was calculated as the percentage decrease in the signal induced by PMA alone. Test molecules were analyzed in the concentration range from 0.1 nM to 40 μM. EC50s were determined by using standard curve fitting methods such as Excel fit (Microsoft Co.).

Ki [1] [nM] | EC50 [2] [nM] | Compound
12 | 155 | CC(C)(C(=O)Nc1nnc(C2CC2)s1)C(c1ccccc1)c1ccc2c(cnn2-c2ccc(F)cc2)c1 (stereo not drawn) [Example 21, N-(5-cyclopropyl-1,3,4-thiadiazol-2-yl)-3-(1-(4-fluorophenyl)-1H-indazole-5-yl)-2,2-dimethyl-3-phenylpropanamide]
29 | 840 | CSc1nnc(NC(=O)C(C)(C)C(c2ccccc2)c2ccc3c(cnn3-c3ccc(F)cc3)c2)s1 (stereo not drawn) [Example 22, 3-(1-(4-fluorophenyl)-1H-indazol-5-yl)-2,2-dimethyl-N-(5-(methylthio)-1,3,4-thiadiazol-2-yl)-3-phenylpropanamide]
60 | > 10000 | CC(C)(C(=O)Nc1nc2ccccc2s1)C(c1ccccc1)c1ccc2c(cnn2-c2ccc(F)cc2)c1 (stereo not drawn) [Example 23, N-(benzyl[d]thiazol-2-yl)-3-(1-(4-fluorophenyl)-1H-indazol-5-yl)-2,2-dimethyl-3-phenylpropanamide]
28 | > 10000 | Cc1nc(NC(=O)C(C)(C)C(c2ccccc2)c2ccc3c(cnn3-c3ccc(F)cc3)c2)sc1C (stereo not drawn) [Example 24, N-(4,5-dimethylthiazol-2-yl)-3-(1-(4-fluorophenyl)-1H-indazol-5-yl)-2,2-dimethyl-3-phenylpropanamide]
19 | > 10000 | CC(C)(C(=O)Nc1nnc(C(F)(F)F)s1)C(c1ccccc1)c1ccc2c(cnn2-c2ccc(F)cc2)c1 (stereo not drawn) [Example 25, 3-(1-(4-fluorophenyl)-1H-indazol-5-yl)-2,2-dimethyl-3-phenyl-N-(5-(trifluoromethyl)-1,3,4-thiadiazol-2-yl)propanamide]
16 | 404 | CC(C)(C(=O)Nc1ncc(Cl)s1)C(c1ccccc1)c1ccc2c(cnn2-c2ccc(F)cc2)c1 (stereo not drawn) [Example 26, N-(5-chlorothiazol-2-yl)-3-(1-(4-fluorophenyl)-1H-indazol-5-yl)-2,2-dimethyl-3-phenylpropanamide]
23 | 1310 | CCOC(=O)c1csc(NC(=O)C(C)(C)C(c2ccccc2)c2ccc3c(cnn3-c3ccc(F)cc3)c2)n1 (stereo not drawn) [Example 27, ethyl 2-(3-(1-(4-fluorophenyl)-1H-indazol-5-yl)-2,2-dimethyl-3-phenylpropanamido)thiazol-4-carboxylate]
20 | 647 | CCOC(=O)Cc1csc(NC(=O)C(C)(C)C(c2ccccc2)c2ccc3c(cnn3-c3ccc(F)cc3)c2)n1 (stereo not drawn) [Example 28, ethyl 2-(2-(3-(1-(4-fluorophenyl)-1H-indazol-5-yl)-2,2-dimethyl-3-phenylpropanamido)thiazol-4-yl)acetate]
7.8 | 126 | CC(C)(C(=O)Nc1nccs1)C(c1ccccc1)c1ccc2[nH]ncc2c1 (stereo not drawn) [Example 29, 3-(1H-Indazol-5-yl)-2,2-dimethyl-3-phenyl-N-(thiazol-2-yl)propanamide]
98 | > 10000 | CC(C)(Cc1ccc2c(cnn2-c2ccc(F)cc2)c1)C(=O)Nc1nccs1 [Example 31, 3-(1-(4-Fluorophenyl)-1H-indazol-5-yl)-2,2-dimethyl-N-(thiazol-2-yl)propanamide]
84 | 4320 | CC(C)(Cc1ccc2c(cnn2-c2ccc(F)cc2)c1)C(=O)Nc1nncs1 [Example 32, 3-(1-(4-Fluorophenyl)-1H-indazol-5-yl)-2,2-dimethyl-N-(1,3,4-thiadiazol-2-yl)propanamide]
21 | 82 | CC(C)(C(=O)Nc1nccs1)C(c1ccc2c(cnn2-c2ccc(F)cc2)c1)C1CCCC1 (stereo not drawn) [Example 35, 3-Cyclopentyl-3-(1-(4-fluorophenyl)-1H-indazol-5-yl)-2,2-dimethyl-N-(thiazol-2-yl)propanamide]
301 | 3350 | CC(C)(C(=O)Nc1nccs1)C(c1cc[n+]([O-])cc1)c1ccc2c(cnn2-c2ccc(F)cc2)c1 (stereo not drawn) [Example 37, 3-(1-(4-Fluorophenyl)-1H-indazol-5-yl)-2,2-dimethyl-3-(pyridin-4-N-oxide-yl)-N-(thiazol-2-yl)propanamide]
9.8 | 87 | CCC(c1ccc2c(cnn2-c2ccc(F)cc2)c1)C(C)(C)C(=O)Nc1nccs1 (stereo not drawn) [Example 39, 3-(1-(4-Fluorophenyl)-1H-indazol-5-yl)-2,2-dimethyl-N-(thiazol-2-yl)pentanamide]
20 | 205 | CC(C)(C(=O)Nc1nccs1)C(c1ccccc1)c1ccc2c(cnn2CCO)c1 (stereo not drawn) [Example 57, 3-(1-(2-hydrox-ethyl)-1H-indazol-5-yl)-2,2-dimethyl-3-phenyl-N-(thiazol-2-yl)propanamide]
10 | 177 | CC(C)(C(=O)Nc1nccs1)C(c1ccccc1)c1ccc2c(cnn2C2CCOCC2)c1 (stereo not drawn) [Example 58, 2,2-dimethyl-3-phenyl-3-(1-(tetrahydro-2H-pyran-4-yl)-1H-indazol-5-yl)-N-(thiazol-2-yl)propanamide]
543 | > 10000 | CN1CCC(n2ncc3cc(C(c4ccccc4)C(C)(C)C(=O)Nc4nccs4)ccc32)CC1 (stereo not drawn) [Example 59, 2,2-dimethyl-3-(1-(1-methylpiper-idin-4-yl)-1H-indazol-5-yl)-3-phenyl-N-(thiazol-2-yl)propanamide]
29 | > 10000 | CC(C)(C(=O)Nc1nccs1)C(c1ccccc1)c1ccc2c(cnn2CS(C)(=O)=O)c1 (stereo not drawn) [Example 60, 2,2-dimethyl-3-(1-(methylsulfonylmethyl)-1H-indazol-5-yl)-3-phenyl-N-(thiazol-2-yl)propanamide]
14 | 158 | CC(C)n1ncc2cc(C(c3ccccc3)C(C)(C)C(=O)Nc3nccs3)ccc21 (stereo not drawn) [Example 61, 3-(1-isopropyl-1H-indazol-5-yl)-2,2-dimethyl-3-phenyl-N-(thiazol-2-yl)propanamide]
9 | 6150 | CC(C)n1cc2cc(C(c3ccccc3)C(C)(C)C(=O)Nc3nccs3)ccc2n1 (stereo not drawn) [Example 62]
65 | > 10000 | CC(C)(C(=O)Nc1nncs1)C(c1ccccc1)c1ccc2c(cnn2CS(C)(=O)=O)c1 (stereo not drawn) [Example 64, 2,2-dimethyl-3-(1-(methylsulfonylmethyl)-1H-indazol-5-yl)-3-phenyl-N-(1,3,4-thiadiazol-2-yl)propanamide]
47 | 550 | CC(C)(C(=O)Nc1nncs1)C(c1ccccc1)c1ccc2c(cnn2CCO)c1 (stereo not drawn) [Example 65, 3-(1-(2-hydroxyethyl)-1H-indazol-5-yl)-2,2-dimethyl-3-phenyl-N-(1,3,4-thiadiazol-2-yl)propanamide]
25 | 532 | CC(C)CCn1cc2cc(C(c3ccccc3)C(C)(C)C(=O)Nc3nncs3)ccc2n1 (stereo not drawn) [Example 67, 3-(2-isopentyl-2H-indazol-5-yl)-2,2-dimethyl-3-phenyl-N-(1,3,4-thiadiazol-2-yl)propanamide]
84 | > 10000 | COCCCn1cc2cc(C(c3ccccc3)C(C)(C)C(=O)Nc3nncs3)ccc2n1 (stereo not drawn) [Example 69, 3-(2-(3-methoxy-propyl)-2H-indazol-5-yl)-2,2-dimethyl-3-phenyl-N-(1,3,4-thiadiazol-2-yl)propanamide]
19 | 1020 | CC(C)Cn1ncc2cc(C(c3ccccc3)C(C)(C)C(=O)Nc3nncs3)ccc21 (stereo not drawn) [Example 70, 3-(1-isobutyl-1H-indazol-5-yl)-2,2-dimethyl-3-phenyl-N-(1,3,4-thiadiazol-2-yl)propanamide]
28 | > 10000 | COCCCn1ncc2cc(C(c3ccccc3)C(C)(C)C(=O)Nc3nncs3)ccc21 (stereo not drawn) [Example 71]
14 | 1930 | CC(C)(C(=O)Nc1nncs1)C(c1ccccc1)c1ccc2c(cnn2Cc2ccccc2)c1 (stereo not drawn) [Example 72, 3-(1-benzyl-1H-indazol-5-yl)-2,2-dimethyl-3-phenyl-N-(1,3,4-thiadiazol-2-yl)propanamide]

From patent publication US8067447B2, “Modulators of glucocorticoid receptor, AP-1, and/or NF-κB activity and use thereof” (Bristol-Myers Squibb Company, priority 2006, dated 2011)
